Results reported in ChEMBL document CHEMBL4715706, “Discovery of Benzotriazolo[4,3-d][1,4]diazepines as Orally Active Inhibitors of BET Bromodomains” (ACS Med Chem Lett, 2016).

Assays:
[1] = Intrinsic clearance in mouse liver microsomes
[2] = Protein binding in human plasma; format: ADME, cell-free; details: read-out: PPB (converted)
Peregrin = target: T1, Peregrin (Homo sapiens, UniProt P55201); assay: Inhibition of BRPF1 (unknown origin) measured after 70 mins by TR-FRET assay
T1 sequence (P55201 whole entry): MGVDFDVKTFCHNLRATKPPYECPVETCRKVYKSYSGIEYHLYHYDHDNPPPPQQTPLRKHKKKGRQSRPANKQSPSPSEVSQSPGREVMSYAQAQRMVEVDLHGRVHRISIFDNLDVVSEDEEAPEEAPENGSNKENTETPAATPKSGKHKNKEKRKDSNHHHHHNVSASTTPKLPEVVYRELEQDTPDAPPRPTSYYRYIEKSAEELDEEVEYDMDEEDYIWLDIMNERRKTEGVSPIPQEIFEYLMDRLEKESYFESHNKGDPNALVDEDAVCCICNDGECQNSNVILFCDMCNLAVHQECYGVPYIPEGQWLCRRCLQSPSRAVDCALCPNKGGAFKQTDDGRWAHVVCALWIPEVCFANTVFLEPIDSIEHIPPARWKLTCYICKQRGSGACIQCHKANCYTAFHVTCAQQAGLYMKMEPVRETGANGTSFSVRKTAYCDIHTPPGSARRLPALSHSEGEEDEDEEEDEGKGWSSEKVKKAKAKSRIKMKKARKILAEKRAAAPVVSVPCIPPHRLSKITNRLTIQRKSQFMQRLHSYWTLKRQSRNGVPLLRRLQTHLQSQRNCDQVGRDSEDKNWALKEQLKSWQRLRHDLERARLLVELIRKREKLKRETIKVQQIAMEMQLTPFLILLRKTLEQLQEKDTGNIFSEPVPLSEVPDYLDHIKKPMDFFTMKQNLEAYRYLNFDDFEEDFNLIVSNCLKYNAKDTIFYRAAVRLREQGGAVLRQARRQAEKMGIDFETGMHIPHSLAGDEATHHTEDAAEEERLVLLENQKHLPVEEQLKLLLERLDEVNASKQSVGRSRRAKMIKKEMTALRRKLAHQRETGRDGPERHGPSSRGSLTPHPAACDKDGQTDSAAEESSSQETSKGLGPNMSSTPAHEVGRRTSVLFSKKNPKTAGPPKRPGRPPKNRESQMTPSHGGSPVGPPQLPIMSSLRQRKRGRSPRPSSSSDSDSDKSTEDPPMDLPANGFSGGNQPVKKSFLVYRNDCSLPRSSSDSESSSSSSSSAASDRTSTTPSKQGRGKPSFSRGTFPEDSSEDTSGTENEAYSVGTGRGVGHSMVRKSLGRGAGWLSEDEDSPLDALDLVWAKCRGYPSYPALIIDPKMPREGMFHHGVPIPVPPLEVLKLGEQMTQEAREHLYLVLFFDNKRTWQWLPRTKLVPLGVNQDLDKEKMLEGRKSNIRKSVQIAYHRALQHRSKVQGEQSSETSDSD

[3] = target: Bromodomain-containing protein 3 (Homo sapiens, UniProt Q15059); assay: Inhibition of BRD3 BD2 (unknown origin) using biotinylated JQ1 analog as substrate measured after 20 mins by AlphaLISA assay
Chain of Bromodomain-containing protein 3 (Q15059 whole entry): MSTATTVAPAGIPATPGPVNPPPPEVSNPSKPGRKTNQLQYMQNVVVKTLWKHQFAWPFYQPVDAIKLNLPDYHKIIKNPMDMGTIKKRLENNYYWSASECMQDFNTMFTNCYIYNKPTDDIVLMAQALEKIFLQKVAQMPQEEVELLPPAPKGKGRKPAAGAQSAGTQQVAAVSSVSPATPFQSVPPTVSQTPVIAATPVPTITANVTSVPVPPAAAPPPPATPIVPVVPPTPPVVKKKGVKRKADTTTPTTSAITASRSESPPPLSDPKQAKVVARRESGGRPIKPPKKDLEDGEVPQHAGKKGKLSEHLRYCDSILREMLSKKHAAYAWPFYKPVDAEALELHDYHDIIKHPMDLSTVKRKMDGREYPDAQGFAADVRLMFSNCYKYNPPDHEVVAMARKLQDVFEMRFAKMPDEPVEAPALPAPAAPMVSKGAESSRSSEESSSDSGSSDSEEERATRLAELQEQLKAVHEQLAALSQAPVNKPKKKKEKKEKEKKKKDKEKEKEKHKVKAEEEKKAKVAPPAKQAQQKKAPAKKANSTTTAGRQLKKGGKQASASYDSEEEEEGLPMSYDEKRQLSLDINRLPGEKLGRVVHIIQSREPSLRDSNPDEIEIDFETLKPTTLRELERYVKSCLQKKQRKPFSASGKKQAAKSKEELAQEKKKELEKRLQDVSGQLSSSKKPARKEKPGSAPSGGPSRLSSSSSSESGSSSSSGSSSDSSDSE

[4] = target: Bromodomain testis-specific protein (Homo sapiens, UniProt Q58F21); assay: Inhibition of BRDT BD1 (unknown origin) using biotinylated JQ1 analog as substrate measured after 20 mins by AlphaLISA assay
[5] = target: T2, ATPase family AAA domain-containing protein 2 (Homo sapiens, UniProt Q6PL18); assay: Inhibition of His-tagged ATAD2 (unknown origin) using biotinylated acetylated peptide as substrate measured after 20 mins by AlphaLISA assay
T2 sequence (Q6PL18 whole entry): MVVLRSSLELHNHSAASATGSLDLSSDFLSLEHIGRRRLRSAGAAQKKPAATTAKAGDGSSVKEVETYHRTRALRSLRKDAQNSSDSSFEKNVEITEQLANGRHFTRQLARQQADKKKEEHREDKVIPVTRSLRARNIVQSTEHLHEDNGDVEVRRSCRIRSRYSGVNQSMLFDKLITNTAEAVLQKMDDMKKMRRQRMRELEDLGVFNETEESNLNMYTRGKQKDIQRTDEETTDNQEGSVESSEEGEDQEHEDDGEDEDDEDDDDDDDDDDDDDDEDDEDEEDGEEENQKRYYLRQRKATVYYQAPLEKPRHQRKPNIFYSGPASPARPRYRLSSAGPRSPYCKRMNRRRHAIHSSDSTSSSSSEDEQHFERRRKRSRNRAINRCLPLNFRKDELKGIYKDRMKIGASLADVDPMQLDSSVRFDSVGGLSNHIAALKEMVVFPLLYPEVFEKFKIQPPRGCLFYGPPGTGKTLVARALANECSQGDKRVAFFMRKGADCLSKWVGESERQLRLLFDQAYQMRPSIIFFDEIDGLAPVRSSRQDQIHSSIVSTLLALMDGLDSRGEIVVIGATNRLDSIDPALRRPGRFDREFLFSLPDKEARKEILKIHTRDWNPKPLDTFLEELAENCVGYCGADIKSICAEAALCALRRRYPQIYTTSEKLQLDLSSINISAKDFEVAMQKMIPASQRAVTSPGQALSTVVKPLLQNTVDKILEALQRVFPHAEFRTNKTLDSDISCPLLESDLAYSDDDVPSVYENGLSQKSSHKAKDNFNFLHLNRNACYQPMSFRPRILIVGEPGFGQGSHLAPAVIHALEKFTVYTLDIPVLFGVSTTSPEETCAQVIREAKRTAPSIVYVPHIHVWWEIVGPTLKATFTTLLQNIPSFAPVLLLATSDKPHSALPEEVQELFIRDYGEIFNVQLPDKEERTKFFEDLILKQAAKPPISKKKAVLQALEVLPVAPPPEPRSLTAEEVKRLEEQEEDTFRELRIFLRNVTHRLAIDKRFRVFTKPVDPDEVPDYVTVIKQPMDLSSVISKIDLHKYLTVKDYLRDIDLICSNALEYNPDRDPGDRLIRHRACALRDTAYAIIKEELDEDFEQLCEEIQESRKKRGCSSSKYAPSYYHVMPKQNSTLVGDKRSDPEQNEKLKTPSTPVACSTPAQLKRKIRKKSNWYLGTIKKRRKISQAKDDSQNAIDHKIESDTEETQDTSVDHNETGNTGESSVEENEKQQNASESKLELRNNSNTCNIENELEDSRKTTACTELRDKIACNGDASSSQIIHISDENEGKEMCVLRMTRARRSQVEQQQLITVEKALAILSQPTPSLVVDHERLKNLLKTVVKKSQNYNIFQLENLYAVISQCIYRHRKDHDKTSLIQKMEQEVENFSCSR

[6] = target: SWI/SNF-related matrix-associated actin-dependent regulator of chromatin subfamily A member 4 (Homo sapiens, UniProt P51532); assay: Inhibition of His-tagged BRG1 (unknown origin) using biotinylated acetylated peptide as substrate measured after 20 mins by AlphaLISA assay
Chain of SWI/SNF-related matrix-associated actin-dependent regulator of chromatin subfamily A member 4 (P51532 whole entry): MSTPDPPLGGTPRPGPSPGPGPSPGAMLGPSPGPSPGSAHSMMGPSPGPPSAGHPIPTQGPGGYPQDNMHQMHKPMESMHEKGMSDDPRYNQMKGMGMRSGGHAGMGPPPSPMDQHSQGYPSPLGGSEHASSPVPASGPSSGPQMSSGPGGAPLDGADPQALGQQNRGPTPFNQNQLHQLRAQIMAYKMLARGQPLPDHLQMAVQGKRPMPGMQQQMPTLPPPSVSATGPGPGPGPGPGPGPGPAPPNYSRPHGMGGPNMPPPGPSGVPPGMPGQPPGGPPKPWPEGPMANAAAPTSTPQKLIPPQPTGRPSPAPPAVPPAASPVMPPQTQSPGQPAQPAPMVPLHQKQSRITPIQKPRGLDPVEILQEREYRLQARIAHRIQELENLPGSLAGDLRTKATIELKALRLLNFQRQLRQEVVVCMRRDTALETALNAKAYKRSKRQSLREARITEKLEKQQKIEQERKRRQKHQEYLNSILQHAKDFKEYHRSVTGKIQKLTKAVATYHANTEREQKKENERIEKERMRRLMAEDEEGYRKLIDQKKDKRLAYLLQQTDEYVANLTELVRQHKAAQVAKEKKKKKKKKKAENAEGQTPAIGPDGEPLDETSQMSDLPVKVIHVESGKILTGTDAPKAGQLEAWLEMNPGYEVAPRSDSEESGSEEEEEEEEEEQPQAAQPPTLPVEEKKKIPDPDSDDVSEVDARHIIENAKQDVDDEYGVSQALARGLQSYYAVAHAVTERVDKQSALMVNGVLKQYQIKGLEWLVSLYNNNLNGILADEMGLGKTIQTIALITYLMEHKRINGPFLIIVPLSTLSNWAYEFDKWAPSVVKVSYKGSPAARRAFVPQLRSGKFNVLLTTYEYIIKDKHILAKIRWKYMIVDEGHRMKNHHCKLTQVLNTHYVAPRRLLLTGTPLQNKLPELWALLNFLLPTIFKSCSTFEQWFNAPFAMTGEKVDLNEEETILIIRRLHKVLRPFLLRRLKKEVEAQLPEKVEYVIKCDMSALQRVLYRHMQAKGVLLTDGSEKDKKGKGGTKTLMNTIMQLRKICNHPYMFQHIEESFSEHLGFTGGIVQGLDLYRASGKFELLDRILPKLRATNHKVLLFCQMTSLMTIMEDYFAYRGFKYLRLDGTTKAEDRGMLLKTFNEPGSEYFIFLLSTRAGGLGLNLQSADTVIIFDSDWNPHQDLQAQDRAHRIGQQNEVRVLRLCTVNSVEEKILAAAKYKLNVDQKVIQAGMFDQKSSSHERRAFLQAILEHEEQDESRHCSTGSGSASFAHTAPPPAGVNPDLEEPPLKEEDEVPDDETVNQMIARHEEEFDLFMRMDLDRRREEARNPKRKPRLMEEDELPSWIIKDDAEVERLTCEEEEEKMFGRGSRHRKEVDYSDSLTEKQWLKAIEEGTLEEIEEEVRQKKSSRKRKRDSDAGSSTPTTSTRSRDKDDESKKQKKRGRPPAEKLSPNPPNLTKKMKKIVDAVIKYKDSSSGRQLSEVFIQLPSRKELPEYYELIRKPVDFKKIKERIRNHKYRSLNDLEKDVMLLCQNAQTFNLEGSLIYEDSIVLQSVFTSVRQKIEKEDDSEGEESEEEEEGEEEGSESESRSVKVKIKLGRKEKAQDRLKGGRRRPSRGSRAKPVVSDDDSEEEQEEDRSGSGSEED

[7] = Volume of distribution at steady state in rat at 1 mg/kg, iv; format: ADME, organism-based; details: in vivo, read-out: Vdss
[8] = AUClast in rat at 10 mg/kg, po; format: ADME, organism-based; set-up: time 0 - last, route oral, dose 10 mg/kg; details: in vivo
[9] = Clearance in rat at 1 mg/kg, iv relative to liver blood flow; format: ADME, organism-based; details: in vivo

microsomal CLint [1]: 16 µL/min/mg
fraction unbound [2]: 0.02
IC50 (Peregrin): > 15000 nM
IC50 [3]: 3 nM
IC50 [4]: 3 nM
IC50 [5]: > 15000 nM
IC50 [6]: > 15000 nM
Vd [7]: 2.2 L/kg
AUC(0-t) [8]: 1.4 µM·h
CL [9]: 90%
Structure (SMILES): Cc1nnc2n1-c1ccc(-c3ccc(N)nc3)cc1N(c1ccc(Cl)cc1)C[C@H]2C
